Measured values: patent publication US6440996B1, “Monomeric and dimeric heterocycles, and therapeutic uses thereof” (priority 1998, dated 2002)
Structures can show the parent of a compound that is named as a salt. Where two headings read alike, the source gives them in different places.

Assays:
[1] = molecular target: T1, dopamine transporter (Rattus norvegicus, UniProt P23977); experiment: [3H]WIN 35,428 binding to rat striatal membranes / dopamine transporter binding (DAT)
T1 construct: from tissue; P2 synaptosomes for uptake
Protocol: (§1) Determination of inhibitory binding potencies of analogues at dopamine, serotonin, and norepinephrine transporters are carried out using standard receptor binding assays which are known in the art.
A. Dopamine Transporter Binding (DAT)

[2] = molecular target: T1, dopamine transporter; experiment: Inhibition of high-affinity [3H]dopamine uptake into rat striatal nerve endings (synaptosomes); type: biochemical
Protocol: A. [^3H]Dopamine Uptake Studies
The effect of candidate compounds in antagonizing dopamine high-affinity uptake was determined using a method previously employed. For [^3H]DA uptake, dissected rat striata were homogenized with a Teflon-glass pestle in ice-cold 0.32 M sucrose and centrifuged for 10 min at 1000×g. The supernatant was centrifuged at 17,500×g for 20 min. This P2 synaptosomal pellet was resuspended in 30 volumes of ice-cold modified KRH buffer. An aliquot of the synaptosomal suspension was preincubated with the buffer and drug for 30 min at 37° C., and uptake initiated by the addition of [^3H]dopamine (5 nM, final concentration). After 5 min, uptake was terminated by adding 5 mL of cold buffer containing glucosamine as a substitute for NaCl and then finally by rapid vacuum filtration over GF-C glass fiber filters, followed by washing with two 5 mL volumes of ice-cold, sodium-free buffer. Radioactivity retained on the filters was determined by liquid scintillation spectrometry. […] It is identical to that calculated by subtracting the mean of identical tubes incubated at 0° C.

[3] = molecular target: serotonin transporter (Rattus norvegicus, UniProt P31652); experiment: Serotonin transporter binding (5-HTT)
Protocol: as §1
B. Serotonin Transporter Binding (5-HTT)
Mol. Pharmacol., 39, 339.

[4] = molecular target: norepinephrine transporter (Rattus norvegicus, UniProt Q9WTR4); experiment: Norepinephrine transporter binding (NET)
Protocol: as §1
C. Norepinephrine Transporter Binding (NET)
J. Med Chem., 36, 2886-2890.

[5] = IC50 (nM) [3H]WIN 35,428 binding, rat striatal membranes, Table 1
[6] = rat striatal synaptosomes, Table 1, read-out: IC50 (nM) [3H]dopamine uptake
[7] = Table 2, read-out: DAT IC50 (nm)
[8] = Table 2, read-out: NET IC50 (nm)
[9] = Table 2, unit inferred, read-out: Dopamine Uptake
[10] = rat striatal membranes, Table 1, read-out: IC50 (nM) [3H]WIN 35,428 binding
[11] = Table 2, read-out: 5-HTT IC50 (nm)

norepinephrine transporter, sequence (Q9WTR4 1-597): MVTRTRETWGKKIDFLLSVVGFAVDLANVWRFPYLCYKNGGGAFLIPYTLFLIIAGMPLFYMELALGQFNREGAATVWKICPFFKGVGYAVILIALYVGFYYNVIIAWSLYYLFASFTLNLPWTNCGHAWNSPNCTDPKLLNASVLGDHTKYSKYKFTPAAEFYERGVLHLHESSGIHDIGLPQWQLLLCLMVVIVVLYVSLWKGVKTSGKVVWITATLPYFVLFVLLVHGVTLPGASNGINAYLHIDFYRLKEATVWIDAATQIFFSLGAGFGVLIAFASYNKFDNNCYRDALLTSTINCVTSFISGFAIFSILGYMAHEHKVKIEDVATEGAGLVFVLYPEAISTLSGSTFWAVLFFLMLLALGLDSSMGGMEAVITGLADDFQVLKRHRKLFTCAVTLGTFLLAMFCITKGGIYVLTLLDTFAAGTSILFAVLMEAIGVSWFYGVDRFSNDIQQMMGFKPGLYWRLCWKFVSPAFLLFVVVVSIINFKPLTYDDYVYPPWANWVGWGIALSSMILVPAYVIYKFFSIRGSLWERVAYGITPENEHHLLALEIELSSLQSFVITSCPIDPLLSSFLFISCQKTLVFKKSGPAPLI
T1 sequence (P23977 whole entry): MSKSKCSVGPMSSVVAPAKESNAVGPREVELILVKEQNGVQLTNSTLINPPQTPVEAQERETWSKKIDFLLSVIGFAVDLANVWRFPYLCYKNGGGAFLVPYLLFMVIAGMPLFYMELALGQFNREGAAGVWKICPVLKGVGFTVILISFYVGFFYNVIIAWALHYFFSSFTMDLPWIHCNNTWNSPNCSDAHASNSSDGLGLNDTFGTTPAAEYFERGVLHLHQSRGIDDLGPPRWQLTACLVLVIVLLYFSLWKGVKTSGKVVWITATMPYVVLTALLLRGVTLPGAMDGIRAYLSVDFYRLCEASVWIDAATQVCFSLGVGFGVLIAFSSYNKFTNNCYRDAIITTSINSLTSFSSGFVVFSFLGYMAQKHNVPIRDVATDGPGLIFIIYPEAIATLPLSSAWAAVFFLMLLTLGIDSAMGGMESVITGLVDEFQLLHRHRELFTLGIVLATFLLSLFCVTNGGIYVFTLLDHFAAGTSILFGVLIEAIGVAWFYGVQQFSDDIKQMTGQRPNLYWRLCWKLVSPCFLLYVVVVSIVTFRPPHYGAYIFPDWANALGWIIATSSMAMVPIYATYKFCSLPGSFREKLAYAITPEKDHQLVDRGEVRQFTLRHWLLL
serotonin transporter, sequence (P31652 whole entry): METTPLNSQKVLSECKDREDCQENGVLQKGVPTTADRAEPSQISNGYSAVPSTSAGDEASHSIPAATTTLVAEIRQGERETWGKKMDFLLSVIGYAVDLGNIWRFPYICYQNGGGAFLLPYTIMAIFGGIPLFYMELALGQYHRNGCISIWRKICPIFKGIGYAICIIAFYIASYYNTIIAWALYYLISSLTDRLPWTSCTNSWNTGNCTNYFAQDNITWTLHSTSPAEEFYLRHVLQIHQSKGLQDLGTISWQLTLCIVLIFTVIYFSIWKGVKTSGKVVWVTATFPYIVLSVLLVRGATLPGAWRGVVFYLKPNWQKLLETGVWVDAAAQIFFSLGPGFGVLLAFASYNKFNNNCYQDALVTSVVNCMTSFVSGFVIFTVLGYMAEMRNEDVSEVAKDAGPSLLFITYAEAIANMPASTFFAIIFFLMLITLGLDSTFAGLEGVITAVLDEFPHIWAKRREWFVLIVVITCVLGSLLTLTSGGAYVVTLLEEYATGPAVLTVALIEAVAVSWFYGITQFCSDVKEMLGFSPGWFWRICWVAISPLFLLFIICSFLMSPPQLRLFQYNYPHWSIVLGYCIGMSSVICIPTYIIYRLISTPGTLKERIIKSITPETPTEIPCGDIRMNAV

## COC(=O)C1CN(C)CCC1c1ccc(Cl)cc1 (racemic) [1 · HCl]
[1]; DAT IC50 (nm), Table 2
  IC50: 53 nM

## COC(=O)[C@@H]1CN(C)CC[C@@H]1c1ccc(Cl)cc1 (racemic) [Compound 1, (±)-cis-Methyl 4-(4-Chlorophenyl)-1-methylpiperidine-3-carboxylate]
[1]; DAT IC50 (nm), Table 2
  IC50: 22 nM
[1]; [5]
  IC50: 53.7 ± 1.9 nM
[2]; [6]
  IC50: 37.8 ± 7.9 nM
other
  melting point: 98 to 99 °C

## COC(=O)C1CN(C)CCC1c1cccc2ccccc12 (racemic) [Compound 73, (±)-Methyl 4β-(1-Naphthyl)-1-methylpiperidine-3β-carboxylate]
[1]; [7]
  IC50: 173 nM
[3]; 5-HTT IC50 (nm), Table 2
  IC50: 1310 nM
[4]; [8]
  IC50: 2700 nM
other
  melting point: 108 to 109 °C

## COC(=O)C1CN(C)CCC1c1ccc2ccccc2c1 (racemic) [Compound 75, (±)-Methyl 4-(2-Naphthyl)-1-methylpiperidine-3-carboxylate]
[1]; DAT IC50 (nm), Table 2
  IC50: 78 nM
[3]; 5-HTT IC50 (nm), Table 2
  IC50: 366 nM
[4]
  IC50: 607 nM

## COC(=O)C1CN(C)CCC1c1ccc(Cl)cc1 (single isomer, unassigned; (+)) [Compound 4, (+)-Methyl 4β-(4-Chlorophenyl)-1-methylpiperidine-3β-carboxylate]
[2]; [9]
  IC50: 5090 nM
[2]; [6]
  IC50: 5090 ± 172 nM

## CN1CCC(c2ccc(Cl)cc2)C(CO)C1 (single isomer, unassigned; (+)) [Compound 6, (+)-4β-(4-Chlorophenyl)-3β-(hydroxymethyl)-1-methylpiperidine]
[1]; DAT IC50 (nm), Table 2
  IC50: 442 nM
[1]; [5]
  IC50: 442 ± 32 nM

## CC(=O)OCC1CN(C)CCC1c1ccc(Cl)cc1 (single isomer, unassigned; (+)) [Compound 8, (+)-3β-(Acetoxymethyl)-4β-(4-chlorophenyl)-1-methylpiperidine]
[1]; DAT IC50 (nm), Table 2
  IC50: 928 nM
[1]; [5]
  IC50: 928 ± 43 nM
[2]; [9]
  IC50: 2030 nM
[2]; [6]
  IC50: 2030 ± 82 nM

## CN1CCC(c2ccc(Cl)cc2)C(CO)C1 (single isomer, unassigned; (+)) [Compound 13, (+)-4β-(4-Chlorophenyl)-3α-(hydroxymethyl)-1-methylpiperidine]
[1]; DAT IC50 (nm), Table 2
  IC50: 240 nM
[1]; [5]
  IC50: 240 ± 18 nM
[2]; [9]
  IC50: 864 nM
[2]; [6]
  IC50: 683 ± 47 nM

## CC(=O)OCC1CN(C)CCC1c1ccc(Cl)cc1 (single isomer, unassigned; (+)) [Compound 14, (+)-3α-(Acetoxymethyl)-4β-(4-chlorophenyl)-1-methylpiperidine]
[1]; DAT IC50 (nm), Table 2
  IC50: 461 nM
[1]; [5]
  IC50: 461 ± 11 nM

## CCCC1CN(C)CCC1c1ccc(Cl)cc1 (single isomer, unassigned; (+)) [Compound 15, (+) 4β-(4-Chlorophenyl)-1-methyl-3α-n-propylpiperidine]
[1]; [10]
  IC50: 17.2 ± 0.5 nM
[2]; [9]
  IC50: 23 nM
[2]; [6]
  IC50: 23.2 ± 2.2 nM
[3]; [11]
  IC50: 155 nM
[4]; [8]
  IC50: 183 nM

## CN1CCC(c2ccc(Cl)cc2)C(CCCS)C1 (single isomer, unassigned; (+)) [Compound 55]
[1]; [7]
  IC50: 28 nM

## Cc1noc(C2CN(C)CCC2c2ccc(Cl)cc2)n1 (single isomer, unassigned; (+)) [Compound 56]
[1]; [7]
  IC50: 172 nM
[3]; [11]
  IC50: > 10000 nM
[4]; [8]
  IC50: 1130 nM

## CN1CCC(c2ccc(Cl)cc2)C(c2nc(-c3ccccc3)no2)C1 (single isomer, unassigned; (+)) [Compound 58]
[1]; DAT IC50 (nm), Table 2
  IC50: 289 nM
[3]
  IC50: 7400 nM

## CN1CCC(c2ccc(Cl)cc2)C(C(=O)Oc2ccccc2)C1 (single isomer, unassigned; (+)) [Compound 59, (+)-Phenyl 4β-(4-Chlorophenyl)-1-methylpiperidine-3α-carboxylate]
[1]; DAT IC50 (nm), Table 2
  IC50: 1460 nM
[3]; 5-HTT IC50 (nm), Table 2
  IC50: 25100 nM
[4]
  IC50: 56500 nM

## C=Cc1ccc(C2CCN(C)CC2C(=O)OC)cc1 (single isomer, unassigned; (+)) [Compound 65, (+)-Methyl 4β-(4-Vinylphenyl)-1-methylpiperidine-3α-carboxylate]
[3]; 5-HTT IC50 (nm), Table 2
  IC50: 55700 nM

## CCc1ccc(C2CCN(C)CC2C(=O)OC)cc1 (single isomer, unassigned; (+)) [Compound 67, (+)-Methyl 4β-(4-Ethylphenyl)-1-methylpiperidine-3α-carboxylate]
[1]; [7]
  IC50: 7340 nM

## CCc1ccc(C2CCN(C)CC2C(=O)OC)cc1I (single isomer, unassigned; (+)) [Compound 68, (+)-Methyl 4β-(4-Ethyl-3-iodophenyl)-1-methylpiperidine-3α-carboxylate]
[1]; DAT IC50 (nm), Table 2
  IC50: 1420 nM

## COC(=O)C1CN(C)CCC1c1ccc(Cl)cc1 (single isomer, unassigned; (-)) [Compound 12, (−)-Methyl 4β-(4-Chlorophenyl)-1-methylpiperidine-3α-carboxylate]
[1]; DAT IC50 (nm), Table 2
  IC50: 653 nM
[1]; [5]
  IC50: 653 ± 38 nM
[2]; [9]
  IC50: 195 nM
[2]; [6]
  IC50: 195 ± 8 nM

## COC(=O)C1CN(S(=O)(=O)c2ccccc2)CCC1c1ccc(Cl)cc1 (single isomer, unassigned; (-)) [Compound 46, (−)-Methyl 4β-(4-Chlorophenyl)-1-phenylsulfonyl-piperidine-3β-carboxylate]
[1]; DAT IC50 (nm), Table 2
  IC50: 26100 nM
[4]
  IC50: > 10000 nM
other
  melting point: 76 to 78 °C

## COC(=O)C1CN(Cc2ccccc2)CCC1c1ccc(Cl)cc1 (single isomer, unassigned; (-)) [Compound 47, (−)-Methyl 4β-(4-Chlorophenyl)-1-benzylpiperidine-3β-carboxylate]
[1]; DAT IC50 (nm), Table 2
  IC50: 917 nM
other
  melting point: 119 to 121 °C

## COC(=O)C1(C)CN(C)CCC1c1ccc(Cl)cc1 (single isomer, unassigned; (-)) [Compound 49, (−)-Methyl 4β-(4-Chlorophenyl)-3β-methyl-1-methylpiperidine-3b-carboxylate]
[1]; DAT IC50 (nm), Table 2
  IC50: 1970 nM

## CN1CCC(c2ccc(Cl)cc2)C(C(=O)Oc2ccccc2)C1 (single isomer, unassigned; (-)) [Compound 60, (−)-Phenyl 4β-(4-Chlorophenyl)-1-methylpiperidine-3b-carboxylate]
[1]; DAT IC50 (nm), Table 2
  IC50: 39 nM

## COC(=O)C1CN(C)CCC1c1ccc(Br)cc1 (single isomer, unassigned; (-)) [Compound 63, (−)-Methyl 4β-(4-Bromophenyl)-1-methylpiperidine-3β-carboxylate]
[1]; DAT IC50 (nm), Table 2
  IC50: 3 nM
[3]; 5-HTT IC50 (nm), Table 2
  IC50: 1100 nM
other
  melting point: 121 to 122 °C

## C=Cc1ccc(C2CCN(C)CC2C(=O)OC)cc1 (single isomer, unassigned; (-)) [Compound 64, (−)-Methyl 4β-(4-Vinylphenyl)-1-methylpiperidine-3β-carboxylate]
[3]; 5-HTT IC50 (nm), Table 2
  IC50: 13200 nM
[4]
  IC50: 65800 nM
other
  melting point: 68 to 69 °C

## CCc1ccc(C2CCN(C)CC2C(=O)OC)cc1I (single isomer, unassigned; (-)) [Compound 66, (−)-Methyl 4β-(4-Ethyl-3-iodophenyl)-1-methylpiperidine-3β-carboxylate]
[1]; DAT IC50 (nm), Table 2
  IC50: 4410 nM

## CCc1ccc(C2CCN(C)CC2C(=O)OC)cc1 (single isomer, unassigned; (-)) [Compound 81, (−)-Methyl 4β-(4-Ethylphenyl)-1-methylpiperidine-3β-carboxylate]
[1]; [7]
  IC50: 1690 nM
[3]; 5-HTT IC50 (nm), Table 2
  IC50: 15700 nM
[4]; [8]
  IC50: > 10000 nM

## CN1CC[C@H](c2ccc(Cl)cc2)[C@H](CO)C1 [Compound 5, (−)-4β-(4-Chlorophenyl)-3β-(hydroxymethyl)-1-methylpiperidine]
[1]; DAT IC50 (nm), Table 2
  IC50: 75 nM
[1]; [5]
  IC50: 75.3 ± 6.2 nM
[2]; [9]
  IC50: 49 nM
[2]; [6]
  IC50: 49 ± 3 nM

## CC(=O)OC[C@@H]1CN(C)CC[C@@H]1c1ccc(Cl)cc1 [Compound 7, (−)-3β-(Acetoxymethyl)-4β-(4-chlorophenyl)-1-methylpiperidine]
[1]; DAT IC50 (nm), Table 2
  IC50: 10 nM
[1]; [10]
  IC50: 44.7 ± 10.5 nM
[2]; [9]
  IC50: 63 nM
[2]; [6]
  IC50: 62.9 ± 2.7 nM
[4]
  IC50: 233 nM
other
  melting point: 76 °C

## CCC[C@@H]1CN(C)CC[C@@H]1c1ccc(Cl)cc1 [Compound 9, (−) 4β-(4-Chlorophenyl)-1-methyl-3β-n-propylpiperidine]
[1]; [7]
  IC50: 3 nM
[1]; [10]
  IC50: 3 ± 0.5 nM
[1]; read-out: binding affinity
  IC50: 3 nM
[1]; relative to cocaine
  fold more potent than cocaine in binding affinity: 33 fold
[2]; [9]
  IC50: 8 nM
[2]; [6]
  IC50: 8.3 ± 0.6 nM
[2]; relative to cocaine
  fold more potent than cocaine in inhibition of dopamine uptake: 29 fold

## COC(=O)[C@@H]1CN(C)CC[C@@H]1c1ccccc1 [Compound 10, (−)-Methyl 1-Methyl-4β-phenylpiperidine-3β-carboxylate]
[1]; DAT IC50 (nm), Table 2
  IC50: 797 nM
[1]; [5]
  IC50: 769 ± 19 nM

## COC(=O)[C@H]1CN(C)CC[C@@H]1c1ccc(Cl)cc1 [Compound 11, (+)-Methyl 4β-(4-Chlorophenyl)-1-methylpiperidine-3α-carboxylate]
[1]; [7]
  IC50: 57 nM
[1]; [10]
  IC50: 57.3 ± 8.1 nM
[2]; [9]
  IC50: 34 nM
[2]; [6]
  IC50: 34.6 ± 3.2 nM
[3]; 5-HTT IC50 (nm), Table 2
  IC50: 1620 nM
[4]
  IC50: 4200 nM

## CN1CC[C@H](c2ccc(Cl)cc2)[C@@H](CCCO)C1 [Compound 54]
[1]; DAT IC50 (nm), Table 2
  IC50: 15 nM
[3]
  IC50: 2810 nM
[4]
  IC50: 563 nM

## CN1CC[C@H](c2ccc(Cl)cc2)[C@@H](CCCF)C1 [Compound 80, (+)-4β-(4-Chlorophenyl)-3α-(3-fluoropropyl)-1-methylpiperidine]
[1]; DAT IC50 (nm), Table 2
  IC50: 28 nM
